# Source: US9782415B2, “Substituted pyrazolo[1,5-a]pyrimidine compounds as Trk kinase inhibitors” (Array BioPharma, Inc., priority 2009, dated 2017)
# Read-outs that look alike come from different tables or passages of the source.
# Legend:
# Assay type in all cases: biochemical
# [1] = biological target: Human Jak2 kinase domain (Homo sapiens (Human), UniProt O60674); test: Jak2 Inhibition Assay (Omnia kinase assay)
# From the text: The assays described in Examples C, D, E and F for the determination of JAK1, JAK2, JAK3 and Tyk2 kinase activity, respectively, utilized the Omnia® Kinase fluorescence peptide substrate-based technology (Invitrogen). The specific components of the assay mixture are described in Examples C, D and E. […] Two-μL aliquots of these were transferred to a fresh plate for a ten-fold intermediate dilution with assay buffer. […] Human Jak2 kinase domain comprising amino acids 808-1132 was purchased from Invitrogen Corporation, Carlsbad, Calif.
# [2] = biological target: histidine-tagged recombinant human TrkA, cytoplasmic domain (Homo sapiens (Human), UniProt P04629); test: TrkA ELISA Assay; details: Table 1, 500 μM ATP, read-out: TrkA Enzyme IC50
# Experimental: An enzyme-linked immunosorbant assay (ELISA) was used to assess TrkA kinase activity in the presence of inhibitors. […] The assay buffer consisted of 25 mM MOPS pH 7.5, 0.005% (v/v) Triton X-100 and 5 mM MgCl2. The reaction mixture was removed from the plate by washing with PBS containing 0.1% (v/v) Tween 20. […] After the addition of 1M phosphoric acid, the chromogenic substrate color intensity was quantitated via absorbance at 450 nm.
# [3] = biological target: Human Tyk2 kinase domain (Homo sapiens (Human), UniProt P29597); test: Tyk2 Inhibition Assay (Omnia kinase assay); details: Table 2; 500 μM ATP
# Experimental: (§1) The assays described in Examples C, D, E and F for the determination of JAK1, JAK2, JAK3 and Tyk2 kinase activity, respectively, utilized the Omnia® Kinase fluorescence peptide substrate-based technology (Invitrogen). […] The reactions were therefore read at excitation 360 nm and emission was measured at 485 nm every 50 seconds for 45 minutes using a PerkinElmer EnVision Multilabel Plate Reader.
# (§2) The final buffer conditions for each of the JAK1, JAK2, JAK3 and Tyk2 assays were as follows: 25 mM HEPES, pH 7.4, 10 mM MgCl2, 0.01% Triton X-100 and 1 mM DTT.
# (§3) Compounds were prepared at 50× the final concentration in DMSO by conducting 3-fold serial dilutions from a 500-μM or 1000-μM intermediate dilution to give a 10-point dosing curve having a high dose of 10 or 20 μM. Two-μL aliquots of these were transferred to a fresh plate for a ten-fold intermediate dilution with assay buffer. Five-μL aliquots of the diluted compounds were then transferred to 20-μL of assay mixtures described in Examples C, D, E and F for a final concentration of DMSO of 2%. A standard or reference compound was typically included on each assay plate to validate that plate. For each plate, percent of control (POC) values were calculated for each well according to the following equation: […]
# (§4) IC50's were estimated from the POC's using a standard 4-parameter logistic model: […]
# [4] = biological target: GST-tagged human Jak1 kinase domain (Homo sapiens (Human), UniProt P23458); test: Jak1 Inhibition Assay (Omnia kinase assay); details: Table 2; 500 μM ATP
# Experimental: as §1, §2, §3, §4
# [5] = biological target: GST-tagged human Jak3 kinase domain (Homo sapiens (Human), UniProt P52333); test: Jak3 Inhibition Assay (Omnia kinase assay); details: Table 2; 500 μM ATP
# Experimental: as §1, §2, §3, §4
# [6] = read-out: Jak2 Enzyme % inhibition at 1000 nM, Table 1, 1000 nM test compound
# Human Jak2 kinase domain, sequence (O60674 808-1132): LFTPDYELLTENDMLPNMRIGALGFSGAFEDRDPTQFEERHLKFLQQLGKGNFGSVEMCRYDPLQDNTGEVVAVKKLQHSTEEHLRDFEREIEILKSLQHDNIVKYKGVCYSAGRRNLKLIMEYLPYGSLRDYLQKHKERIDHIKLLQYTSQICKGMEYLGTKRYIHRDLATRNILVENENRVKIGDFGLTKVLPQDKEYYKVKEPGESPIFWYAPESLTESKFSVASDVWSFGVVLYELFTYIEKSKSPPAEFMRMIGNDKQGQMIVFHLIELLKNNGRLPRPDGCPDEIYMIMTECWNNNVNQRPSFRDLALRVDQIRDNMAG
# Human Tyk2 kinase domain, sequence (P29597 886-1187): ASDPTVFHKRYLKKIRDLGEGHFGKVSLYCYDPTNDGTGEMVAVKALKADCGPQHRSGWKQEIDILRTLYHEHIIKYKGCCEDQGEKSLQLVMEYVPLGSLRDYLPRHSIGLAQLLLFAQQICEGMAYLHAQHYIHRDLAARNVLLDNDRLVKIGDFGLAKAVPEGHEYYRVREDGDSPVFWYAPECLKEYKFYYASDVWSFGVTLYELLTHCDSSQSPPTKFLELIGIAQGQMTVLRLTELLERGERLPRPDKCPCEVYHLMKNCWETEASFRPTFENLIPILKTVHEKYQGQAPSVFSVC
# GST-tagged human Jak3 kinase domain, sequence (P52333 781-1124): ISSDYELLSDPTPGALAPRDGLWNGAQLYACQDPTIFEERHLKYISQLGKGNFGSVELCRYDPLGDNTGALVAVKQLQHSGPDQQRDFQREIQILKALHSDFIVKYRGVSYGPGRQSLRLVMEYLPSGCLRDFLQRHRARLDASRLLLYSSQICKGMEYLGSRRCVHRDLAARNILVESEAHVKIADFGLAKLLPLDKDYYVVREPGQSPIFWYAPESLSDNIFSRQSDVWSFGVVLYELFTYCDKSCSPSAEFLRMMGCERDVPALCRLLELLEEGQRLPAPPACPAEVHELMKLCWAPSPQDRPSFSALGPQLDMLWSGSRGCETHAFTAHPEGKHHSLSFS
# GST-tagged human Jak1 kinase domain, sequence (P23458 866-1154): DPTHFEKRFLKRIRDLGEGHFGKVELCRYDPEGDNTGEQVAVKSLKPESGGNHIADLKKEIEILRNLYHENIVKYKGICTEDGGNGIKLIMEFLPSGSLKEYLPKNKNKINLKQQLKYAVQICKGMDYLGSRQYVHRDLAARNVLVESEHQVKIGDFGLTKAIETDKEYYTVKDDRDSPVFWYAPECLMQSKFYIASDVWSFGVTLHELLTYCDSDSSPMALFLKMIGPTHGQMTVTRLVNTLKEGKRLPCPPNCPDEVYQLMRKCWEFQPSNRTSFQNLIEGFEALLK
# histidine-tagged recombinant human TrkA, cytoplasmic domain, sequence (P04629 440-796): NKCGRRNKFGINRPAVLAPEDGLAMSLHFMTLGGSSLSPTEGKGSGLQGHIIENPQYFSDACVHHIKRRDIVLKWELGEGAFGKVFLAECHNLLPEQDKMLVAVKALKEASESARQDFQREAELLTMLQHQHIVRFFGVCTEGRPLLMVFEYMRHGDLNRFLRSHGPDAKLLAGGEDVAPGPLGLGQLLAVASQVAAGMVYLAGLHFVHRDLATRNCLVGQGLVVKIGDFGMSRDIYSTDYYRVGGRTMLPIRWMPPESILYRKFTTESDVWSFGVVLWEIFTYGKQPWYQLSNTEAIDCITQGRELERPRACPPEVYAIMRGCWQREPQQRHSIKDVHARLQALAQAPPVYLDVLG
structure (smiles),measurement,setting,value
"O=C(N[C@@H]1C2CC[C@@H](C2)[C@@H]1CO)c1cnn2ccc(N3CCC[C@@H]3c3cncc(F)c3)nc12 [Example 138, 5-((R)-2-(5-fluoropyridin-3-yl)pyrrolidin-1-yl)-N-((2R,3S,4S)-3-(hydroxymethyl)bicyclo[2.2.1]heptan-2-yl)pyrazolo[1,5-a]pyrimidine-3-carboxamide]",inhibition at 1 µM,[1]; read-out: Jak2 Enzyme % inhibition at 1000 nM,10%
"O=C(N[C@H]1CC[C@H](O)CC1)c1cnn2ccc(N3CCC[C@@H]3c3cncc(F)c3)nc12 [Example 99, 5-((R)-2-(5-fluoropyridin-3-yl)pyrrolidin-1-yl)-N-((trans)-4-hydroxycyclohexyl)pyrazolo[1,5-a]pyrimidine-3-carboxamide]",inhibition at 1 µM,[1]; [6],45.8%
"Cc1ncc(F)cc1[C@H]1CCCN1c1ccn2ncc(C(=O)N[C@@H]3CCC[C@H]3O)c2n1 [Example 197, 5-((R)-2-(5-fluoro-2-methylpyridin-3-yl)pyrrolidin-1-yl)-N-((1R,2R)-2-hydroxycyclopentyl)pyrazolo[1,5-a]pyrimidine-3-carboxamide]",IC50,[2],4.8 nM
same,IC50,"[1]; Table 1, 500 μM ATP, >1000 nM when >50% inhibition not observed at 1000 nM, read-out: Jak2 Enzyme IC50",> 1000 nM
"O=C(N[C@H]1CC[C@@H](O)CC1)c1cnn2ccc(N3CCC[C@@H]3c3cncc(F)c3)nc12 [Example 100, 5-((R)-2-(5-fluoropyridin-3-yl)pyrrolidin-1-yl)-N-((cis)-4-hydroxycyclohexyl)pyrazolo[1,5-a]pyrimidine-3-carboxamide]",inhibition at 1 µM,[1]; [6],13.8%
"COc1ncc(F)cc1[C@H]1CCCN1c1ccn2ncc(C(=O)N[C@H]3CC[C@H](O)CC3)c2n1 [Example 140, 5-((R)-2-(5-fluoro-2-methoxypyridin-3-yl)pyrrolidin-1-yl)-N-((trans)-4-hydroxycyclohexyl)pyrazolo[1,5-a]pyrimidine-3-carboxamide]",IC50,[3],> 1000 nM
"Cc1ncc(F)cc1[C@H]1CCCN1c1ccn2ncc(C(=O)N[C@H]3CC[C@H](O)CC3)c2n1 [Example 194, 5-((R)-2-(5-fluoro-2-methylpyridin-3-yl)pyrrolidin-1-yl)-N-((trans)-4-hydroxycyclohexyl)pyrazolo[1,5-a]pyrimidine-3-carboxamide]",IC50,[4],> 1000 nM
same,IC50,[5],> 1000 nM
same,IC50,[3],> 1000 nM
